From PMC12631912, “A Multifunctional Molecular Probe for Multimodal Imaging‐Guided Potent Photothermal/Photodynamic Therapy of Endometriosis” (Advanced Science, 2025)

Assays:
[1] = T1 relaxivity (r1) of probe solutions by MRI; type: physicochemical; conditions: in PBS, 3.0 T MRI scanner, room temperature; slope of 1/T1 versus Gd concentration; n = 3 regions of interest
Method: An inversion recovery spin echo sequence was executed with the parameters: repetition time (TR) = 5.27 ms, echo time (TE) = 2.29 ms, field of view (FOV) = 160 mm × 160 mm, acquisition matrix = 336 × 336, acquisition voxel = 0.48 mm × 0.48 mm × 2 mm, slice thickness = 2 mm, reconstruction matrix = 672 × 672, reconstruction voxel = 0.24 mm × 0.24 mm × 2 mm, number of flip angles = 4 (3°, 6°, 9°, 13°), and NSA = 1. Regions of interest (ROI, average size 10 mm^2) were analyzed to acquire the T1 relaxation times. The r 1 was then calculated based on the slope of the linear plot between 1/T1 and Gd concentration, determined through linear least‐squares regression analysis.

[2] = ROS generation in solution with DPBF indicator under 808 nm laser; type: physicochemical; conditions: C ICG = 10 µg mL^−1 in methanol, DPBF absorbance at 410 nm, 808 nm laser 1.0 W cm^−2, within 10 min
Method: The generation of ROS was quantified using DPBF as a probe. […] The gradual decrease in the UV absorption of DPBF was monitored using a UV–vis spectrophotometer, and the correlation between the UV absorbance values and the laser exposure time was recorded.

[3] = Photothermal heating and photothermal conversion efficiency of probe solutions; type: physicochemical; conditions: for temperature elevation of solution: 808 nm laser, 1.0 W cm^−2, 5 min
Method: Subsequently, a digital thermographic camera (Fluke Ti27, IR Fusion Technology, USA) was used to capture infrared thermal images and measure temperatures. The relationship between temperature values and laser irradiation duration was recorded using AnalyzIR software (4.0.0). […] The PCE (η) was subsequently calculated based on these measurements.^[ [41] ^]

EESCs [4] = assay: Intracellular ROS generation, DCFH-DA, flow cytometry; type: cell-based, human; conditions: C ICG = 20 µg mL^−1, 4 h, + laser (808 nm, 1.0 W cm^−2, 5 min)
Method: (§1) DCFH‐DA was utilized to evaluate the intracellular ROS production induced by molecular probes under laser irradiation. Specifically, the cells (1 × 10^4 per well) were seeded onto confocal dishes and incubated overnight at 37 °C. […] Following this, the cells were carefully rinsed three times with fresh PBS. Subsequently, the cells were irradiated with an 808 nm laser (1.0 W cm^− ^2, 5 min). Intracellular ROS levels were then visualized and analyzed using a CLSM.
(§2) Additionally, a quantitative assessment of intracellular ROS production was performed using flow cytometry under the same conditions as the above experimental conditions. […] The cells were then trypsinized and harvested. After exposure to an 808 nm laser (1.0 W cm^− ^2, 5 min), the collected cells were analyzed on an Attune NxT flow cytometer (Invitrogen, USA). The resulting data was analyzed with NovoExpress 1.4.0 software (Agilent, USA).

Ishikawa cells = assay: as above; type: cell-based; conditions: C ICG = 20 µg mL^−1, 4 h, + laser (808 nm, 1.0 W cm^−2, 5 min)
Method: as §1, §2

EESCs [5] = assay: In vitro photothermal/photodynamic therapy, CCK-8 viability after laser; type: cell-based, human; conditions: CCK-8, 2 h incubation, 808 nm, 1.0 W cm^−2, 5 min, concentration of the quoted value not stated (range 2.5 to 50 µg mL^−1 ICG), mean ± SD, n = 4
Method: Ishikawa cells and EESCs were seeded in a 96‐well plate at a density of 1 × 10^4 cells per well and allowed to adhere overnight. […] Following this incubation, the cells were irradiated with an 808 nm laser (1.0 W cm^−2, 5 min). The viability of cells was measured using the CCK‐8 assay.

EMS lesions = assay: In vivo photoacoustic imaging of EMS lesions; parameters: species or system BALB/c nude mice; conditions: EMS nude mice, ICG 4 µg g^−1 i.v., imaging to 48 h; n = 3
Method: PAI was conducted using a TomoWave LOIS‐3D series photoacoustic imaging system before injection and at 30 min, 5 h, 24 h, and 48 h post‐injection. Photoacoustic image processing and analysis were conducted using LOIS View 3D software and ImageJ 1.53e. ROIs were manually delineated on axial photoacoustic images to quantify lesion signal intensity (SI).

endometriotic lesions [6] = assay: In vivo anti-EMS efficacy, autologous transplantation model; parameters: species or system Wistar female rats; conditions: EMS rats, i.v. every 3 days, six times, 808 nm 1.0 W cm^−2 10 min 1 h post-administration; n = 4
Method: (§3) Mice were injected with different formulations via the tail vein every 3 days until euthanasia, with an ICG dose of 3 mg kg^−1. For groups receiving NIR laser irradiation, the procedure was conducted 1 h post‐administration with a power of 1.0 W cm^− ^2 for 10 min. Mouse body weights were recorded every 3 days, and xenograft growth was monitored using a vernier caliper. EMS rats (n = 4) underwent the same treatment strategy after 28 days of autotransplantation, with body weight changes monitored every 3 days. After 18 days of treatment, rats were euthanized for autograft size measurement. Nude mice were euthanized after 18 days for graft extraction, followed by H&E staining and TUNEL assay. Briefly, sections were deparaffinized, hydrated, stained with H&E, and visualized under an optical microscope.

endometriotic lesions [7] = assay: In vivo anti-EMS efficacy, xenograft model; parameters: species or system BALB/c nude mice; conditions: xenograft EMS nude mice
Method: As shown in previous references,^[ [19] ^] to establish a xenograft EMS model in nude mice, female BALB/c nude mice (5‐6 weeks, 18‐20 g) served as recipients, and female Sprague–Dawley rats (7‐9 weeks, 200–240 g) with regular 4–5 days estrous cycles were selected as donors after a week of acclimatization. Prior to surgery, nude mice received daily intramuscular β‐estradiol 17‐pentanoate (0.25 µg g^−1) for 3 days. The EMS model was induced by subcutaneous transplantation of ≈40 mg of rat uterine fragments into nude mice. The uterine horns from euthanized donors were sterilely collected, bisected, minced, and suspended in DMEM/F12 medium before injection. Nude mice then received β‐estradiol 17‐pentanoate (0.25 µg g^−1) injections every 2 days, and endometriotic lesions reaching 100 mm^3 were used for subsequent experiments.
as §3
TUNEL staining was performed following the instructions provided in the FITC TUNEL Cell Apoptosis Detection Kit (G1501, Servicebio, Wuhan). Paraffin sections were dewaxed, hydrated, repaired with proteinase K, and permeabilized with Triton X‐100. After incubating with buffer at room temperature for 10 min, a reaction solution containing TdT enzyme, dUTP, and buffer (1:5:50 ratio) was added and incubated at 37 °C for 1 h. Nuclei were counterstained with DAPI for 10 min, followed by three 5 min PBS washes (pH 7.4) on a decolorizing shaker. The slides were then blocked with an anti‐fluorescence quenching blocker (G1401, Sevier, Wuhan). The slides were visualized under CLSM with DAPI (blue light, excited at 330–380 nm, emitted at 420 nm) and FITC (green light, excited at 465–495 nm, emitted at 515–555 nm).

Substance	T 1 relaxivities (r 1) [1] [mM⁻¹ s⁻¹]	reduction in DPBF absorbance (ROS generation) [2]	maximum temperature increase ([3]; 50 µg/mL, 1 W/cm², laser on/off, 5 photothermal cycles (Figure S12a))	temperature elevation of solution ([3]; C ICG = 50 µg mL^−1 in PBS)	Photothermal conversion efficiency (PCE) ([3]; C ICG = 50 µg mL^−1 in PBS, 808 nm, 1 W/cm², calculated from heating and cooling curves) [%]	intracellular ROS, normalized fluorescence intensity (DCFH-DA) (EESCs [4]) [%]	intracellular ROS, normalized fluorescence intensity (DCFH-DA) (Ishikawa cells) [%]	cell viability after laser irradiation (EESCs [5]) [%]	PA signal in lesions over time (EMS lesions)	inhibition of lesion growth, probe + laser (endometriotic lesions [6])	therapeutic efficacy, probe + laser (endometriotic lesions [7]; ICG 3 mg kg^−1 i.v. every 3 days, 808 nm 1.0 W cm^−2 10 min, 18 days, n = 5)	H&E histology of ectopic lesions, probe + laser (endometriotic lesions [7]; after 18 days of treatment)	TUNEL assay of lesions, probe + laser (endometriotic lesions [7]; after 18 days of treatment)
c(RGDyK)‐ICG‐lys‐DTPA@Gd (head to tail) [cRGD‐ILD, targeting theranostic probe integrating cRGD peptide, ICG fragment and DTPA@Gd complex]	4.85	≈ 58%	≈ 45 °C	≈ 20 °C	29.81	96.99	94.2	30.27 ± 2.02	sustained elevated PA signal intensities at 5 and 24 h	superior efficacy in inhibiting lesion growth compared to the other groups	outperformed the ILD + laser combination	pronounced graft growth suppression	peak apoptotic activity
ICG‐lys‐DTPA@Gd [ILD]	5.37	~56%	–	≈ 20 °C	–	93.85	88.54	55.35 ± 1.1	rapid signal attenuation	superior efficacy in inhibiting lesion growth compared to the other groups	–	pronounced graft growth suppression	–
